Data taken from patent publication EP4722207A1, “OXOISOINDOLINYL-SUBSTITUTED TETRAHYDROPYRIMIDINEDIONE DERIVATIVE AND USE THEREOF” (Gluetacs Therapeutics (Shanghai) Co., Ltd., priority 2023, dated 2024).

What was measured:
Format in all cases: cell-based
IKZF2 = molecular target: T1, IKZF2 (Homo sapiens, UniProt Q96SW2+Q9UKS7); test: Western-blot assay, substrate protein degradation in hPBMCs: IKZF2; conditions: for IKZF2 substrate protein remaining %: compounds at 50 nM and 500 nM, 24 hours
T1 construct: effects of the compounds of the present disclosure on the expression of target proteins in cells; endogenous in cells; host or cells: human PBMCs (hPBMCs)

IKZF3 = molecular target: T2, IKZF3 (Homo sapiens, UniProt Q96SW2+Q9UKT9); test: Western-blot assay, substrate protein degradation in hPBMCs: IKZF3; conditions: for IKZF3 substrate protein remaining %: compounds at 50 nM and 500 nM, 24 hours
T2 construct: effects of the compounds of the present disclosure on the expression of target proteins in cells; endogenous in cells; host or cells: human PBMCs (hPBMCs)

GSPT1 = molecular target: T3, GSPT1 (Homo sapiens, UniProt P15170+Q96SW2); test: Western-blot assay, substrate protein degradation in hPBMCs: GSPT1; conditions: for GSPT1 substrate protein remaining %: compounds at 50 nM and 500 nM, 24 hours
T3 construct: effects of the compounds of the present disclosure on the expression of target proteins in cells; endogenous in cells; host or cells: human PBMCs (hPBMCs)

WEE1 = molecular target: T4, WEE1 (Homo sapiens, UniProt P30291+Q96SW2); test: Western-blot assay, substrate protein degradation in hPBMCs: WEE1; conditions: for WEE1 substrate protein remaining %: compounds at 50 nM and 500 nM, 24 hours
T4 construct: effects of the compounds of the present disclosure on the expression of target proteins in cells; endogenous in cells; host or cells: human PBMCs (hPBMCs)

CK1α = molecular target: T5, CK1α (Homo sapiens, UniProt P48729+Q96SW2); test: Western-blot assay, substrate protein degradation in hPBMCs: CK1α; conditions: for CK1α substrate protein remaining %: compounds at 50 nM and 500 nM, 24 hours
T5 construct: effects of the compounds of the present disclosure on the expression of target proteins in cells; endogenous in cells; host or cells: human PBMCs (hPBMCs)

IKZF1 = molecular target: T6, IKZF1 (Homo sapiens, UniProt Q13422+Q96SW2); test: Western-blot assay, substrate protein degradation in hPBMCs: IKZF1; conditions: for IKZF1 substrate protein remaining %: compounds at 50 nM and 500 nM, 24 hours
T6 construct: effects of the compounds of the present disclosure on the expression of target proteins in cells; endogenous in cells; host or cells: human PBMCs (hPBMCs)

[1] = 24 hours of compound treatment, 50 nM and 500 nM

T2 sequence (Q9UKT9 whole entry): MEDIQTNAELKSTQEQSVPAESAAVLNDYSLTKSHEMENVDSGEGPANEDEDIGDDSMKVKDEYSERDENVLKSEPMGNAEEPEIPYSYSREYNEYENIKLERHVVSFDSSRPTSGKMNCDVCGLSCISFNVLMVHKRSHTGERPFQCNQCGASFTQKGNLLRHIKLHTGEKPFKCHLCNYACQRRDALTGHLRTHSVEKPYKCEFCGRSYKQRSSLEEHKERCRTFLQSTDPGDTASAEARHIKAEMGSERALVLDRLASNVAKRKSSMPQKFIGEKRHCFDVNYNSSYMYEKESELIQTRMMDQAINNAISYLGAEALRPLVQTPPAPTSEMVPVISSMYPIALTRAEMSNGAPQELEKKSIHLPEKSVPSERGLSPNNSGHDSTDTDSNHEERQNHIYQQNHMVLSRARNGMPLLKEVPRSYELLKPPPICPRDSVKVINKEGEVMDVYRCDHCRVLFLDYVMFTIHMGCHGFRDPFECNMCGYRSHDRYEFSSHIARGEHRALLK
T2 sequence (Q96SW2 whole entry): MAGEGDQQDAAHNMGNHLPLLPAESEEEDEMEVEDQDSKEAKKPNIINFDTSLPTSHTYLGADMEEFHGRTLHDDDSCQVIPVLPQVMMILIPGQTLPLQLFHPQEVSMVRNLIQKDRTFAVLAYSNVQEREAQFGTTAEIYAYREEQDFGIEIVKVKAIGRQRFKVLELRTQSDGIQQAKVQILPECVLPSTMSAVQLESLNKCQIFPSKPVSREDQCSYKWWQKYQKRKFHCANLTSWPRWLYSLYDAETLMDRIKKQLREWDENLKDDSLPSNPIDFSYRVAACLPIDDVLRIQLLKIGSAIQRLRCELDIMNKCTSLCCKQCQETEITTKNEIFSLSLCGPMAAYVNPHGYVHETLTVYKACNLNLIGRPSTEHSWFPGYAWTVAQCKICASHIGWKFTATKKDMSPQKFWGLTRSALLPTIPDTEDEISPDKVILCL
T2 sequence (Q16531 whole entry partner): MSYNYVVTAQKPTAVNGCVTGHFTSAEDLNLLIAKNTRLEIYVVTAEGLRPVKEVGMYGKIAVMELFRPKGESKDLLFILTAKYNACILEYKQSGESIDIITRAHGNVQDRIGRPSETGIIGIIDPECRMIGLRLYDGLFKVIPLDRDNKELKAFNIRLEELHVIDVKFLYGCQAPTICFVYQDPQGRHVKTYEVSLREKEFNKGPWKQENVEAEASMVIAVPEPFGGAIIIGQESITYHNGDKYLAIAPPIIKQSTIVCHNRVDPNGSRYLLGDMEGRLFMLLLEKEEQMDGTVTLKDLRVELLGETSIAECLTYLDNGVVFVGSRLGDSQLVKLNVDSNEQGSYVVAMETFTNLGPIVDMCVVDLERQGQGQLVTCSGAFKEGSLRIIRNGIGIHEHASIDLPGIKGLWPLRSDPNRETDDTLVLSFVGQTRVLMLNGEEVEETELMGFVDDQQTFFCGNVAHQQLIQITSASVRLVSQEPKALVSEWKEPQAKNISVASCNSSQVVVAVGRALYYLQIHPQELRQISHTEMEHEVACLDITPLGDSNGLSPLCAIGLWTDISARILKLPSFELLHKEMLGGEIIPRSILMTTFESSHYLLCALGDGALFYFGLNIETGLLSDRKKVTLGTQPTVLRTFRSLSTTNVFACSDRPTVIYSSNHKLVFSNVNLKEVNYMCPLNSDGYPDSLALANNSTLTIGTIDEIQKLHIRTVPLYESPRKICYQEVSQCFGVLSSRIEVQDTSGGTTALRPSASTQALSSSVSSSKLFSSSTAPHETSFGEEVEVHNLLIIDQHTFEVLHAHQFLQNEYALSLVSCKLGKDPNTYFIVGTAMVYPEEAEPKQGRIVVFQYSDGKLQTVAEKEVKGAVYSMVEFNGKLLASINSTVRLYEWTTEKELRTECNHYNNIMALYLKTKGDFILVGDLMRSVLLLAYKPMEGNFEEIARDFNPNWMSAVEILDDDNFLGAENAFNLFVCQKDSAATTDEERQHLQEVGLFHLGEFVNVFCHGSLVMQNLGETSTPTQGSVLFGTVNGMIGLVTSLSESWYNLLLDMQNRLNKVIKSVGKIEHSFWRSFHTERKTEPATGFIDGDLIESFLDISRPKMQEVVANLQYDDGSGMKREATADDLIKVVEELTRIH
T1 sequence (Q9UKS7 whole entry): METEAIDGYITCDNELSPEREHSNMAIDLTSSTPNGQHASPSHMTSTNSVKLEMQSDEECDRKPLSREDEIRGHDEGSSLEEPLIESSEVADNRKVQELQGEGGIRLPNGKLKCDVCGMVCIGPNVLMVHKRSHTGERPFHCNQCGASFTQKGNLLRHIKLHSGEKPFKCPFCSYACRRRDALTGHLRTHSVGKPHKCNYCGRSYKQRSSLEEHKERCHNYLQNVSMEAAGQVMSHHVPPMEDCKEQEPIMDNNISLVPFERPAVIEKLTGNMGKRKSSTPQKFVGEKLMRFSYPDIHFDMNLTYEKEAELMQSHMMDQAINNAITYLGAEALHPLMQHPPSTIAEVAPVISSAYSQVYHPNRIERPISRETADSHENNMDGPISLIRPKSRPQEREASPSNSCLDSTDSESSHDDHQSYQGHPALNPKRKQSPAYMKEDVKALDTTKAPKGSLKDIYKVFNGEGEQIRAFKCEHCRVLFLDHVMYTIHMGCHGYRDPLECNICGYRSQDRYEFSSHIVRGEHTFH
T1 sequence (Q96SW2 whole entry): as the sequence (Q96SW2 whole entry) above
T1 sequence (Q16531 whole entry partner): as the sequence (Q16531 whole entry partner) above
T6 sequence (Q13422 whole entry): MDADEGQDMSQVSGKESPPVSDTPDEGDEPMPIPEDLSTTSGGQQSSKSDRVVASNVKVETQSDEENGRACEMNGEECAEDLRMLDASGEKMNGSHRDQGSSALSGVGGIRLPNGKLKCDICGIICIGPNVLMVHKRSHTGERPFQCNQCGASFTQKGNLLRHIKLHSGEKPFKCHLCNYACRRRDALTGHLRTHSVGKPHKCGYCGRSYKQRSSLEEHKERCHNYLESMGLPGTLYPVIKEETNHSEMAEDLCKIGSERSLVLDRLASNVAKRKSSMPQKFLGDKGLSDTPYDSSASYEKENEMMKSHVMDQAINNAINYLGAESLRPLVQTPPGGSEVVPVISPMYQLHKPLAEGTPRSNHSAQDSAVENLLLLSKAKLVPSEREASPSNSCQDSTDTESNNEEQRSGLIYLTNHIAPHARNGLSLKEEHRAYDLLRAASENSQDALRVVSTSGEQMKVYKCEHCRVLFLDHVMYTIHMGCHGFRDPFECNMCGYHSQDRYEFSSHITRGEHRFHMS
T6 sequence (Q96SW2 whole entry): as the sequence (Q96SW2 whole entry) above
T6 sequence (Q16531 whole entry partner): as the sequence (Q16531 whole entry partner) above
T3 sequence (P15170 whole entry): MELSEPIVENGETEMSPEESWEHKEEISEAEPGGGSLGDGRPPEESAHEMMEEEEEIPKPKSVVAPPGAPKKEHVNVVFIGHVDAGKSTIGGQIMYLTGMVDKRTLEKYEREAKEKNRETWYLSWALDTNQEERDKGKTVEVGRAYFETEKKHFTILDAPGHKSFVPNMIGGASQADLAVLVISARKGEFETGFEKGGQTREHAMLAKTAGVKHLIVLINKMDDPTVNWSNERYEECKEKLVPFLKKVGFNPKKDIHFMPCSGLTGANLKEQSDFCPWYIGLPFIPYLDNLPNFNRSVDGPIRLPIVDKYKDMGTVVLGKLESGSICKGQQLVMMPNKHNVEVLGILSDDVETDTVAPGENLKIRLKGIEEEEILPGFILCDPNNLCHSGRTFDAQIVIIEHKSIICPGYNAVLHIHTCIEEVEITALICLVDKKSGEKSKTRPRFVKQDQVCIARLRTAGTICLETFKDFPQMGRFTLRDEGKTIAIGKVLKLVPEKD
T3 sequence (Q96SW2 whole entry): as the sequence (Q96SW2 whole entry) above
T3 sequence (Q16531 whole entry partner): as the sequence (Q16531 whole entry partner) above
T4 sequence (P30291 whole entry): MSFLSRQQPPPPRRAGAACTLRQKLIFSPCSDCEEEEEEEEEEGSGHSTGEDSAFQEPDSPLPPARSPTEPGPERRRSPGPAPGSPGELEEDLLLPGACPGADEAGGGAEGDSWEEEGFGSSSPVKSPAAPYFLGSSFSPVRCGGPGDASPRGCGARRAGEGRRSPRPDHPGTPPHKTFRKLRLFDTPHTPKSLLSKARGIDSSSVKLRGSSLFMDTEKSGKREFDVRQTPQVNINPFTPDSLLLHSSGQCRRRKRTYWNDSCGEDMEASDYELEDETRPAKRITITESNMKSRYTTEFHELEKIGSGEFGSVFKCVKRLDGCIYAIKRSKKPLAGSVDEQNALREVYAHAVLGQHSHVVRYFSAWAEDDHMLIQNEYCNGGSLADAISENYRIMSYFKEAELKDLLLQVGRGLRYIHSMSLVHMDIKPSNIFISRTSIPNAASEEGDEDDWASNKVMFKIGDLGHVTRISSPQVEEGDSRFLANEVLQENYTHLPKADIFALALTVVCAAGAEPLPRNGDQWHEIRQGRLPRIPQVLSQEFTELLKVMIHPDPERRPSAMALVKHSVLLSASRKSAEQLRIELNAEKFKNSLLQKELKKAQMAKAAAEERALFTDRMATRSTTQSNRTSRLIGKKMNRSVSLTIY
T4 sequence (Q96SW2 whole entry): as the sequence (Q96SW2 whole entry) above
T4 sequence (Q16531 whole entry partner): as the sequence (Q16531 whole entry partner) above

Compound	substrate protein remaining % IKZF2 (IKZF2; [1])	IKZF2 substrate protein remaining % (IKZF2)	substrate protein remaining % IKZF3 (IKZF3; [1])	IKZF3 substrate protein remaining % (IKZF3)	substrate protein remaining % GSPT1 (GSPT1; [1])	GSPT1 substrate protein remaining % (GSPT1)	substrate protein remaining % WEE1 (WEE1; [1])	WEE1 substrate protein remaining % (WEE1)	substrate protein remaining % CK1α (CK1α; [1])	CK1α substrate protein remaining % (CK1α)	substrate protein remaining % IKZF1 (IKZF1; [1])	IKZF1 substrate protein remaining % (IKZF1)
O=C1CCN(N2Cc3cc(CN4CCN(c5cncc(Cl)c5Cl)CC4)ccc3C2=O)C(=O)N1 [GT-05436, 1-(5-((4-(4,5-dichloropyridin-3-yl)piperazin-1-yl)methyl)-1-oxoisoindolin-2-yl)dihydropyrimidine-2,4(1H,3H)-dione]	B (80%< substrate protein remaining %≤ 100%)	B ("B" is defined as 80%< substrate protein remaining %≤ 100%)	B (80%< substrate protein remaining %≤ 100%)	B ("B" is defined as 80%< substrate protein remaining %≤ 100%)	A (0% ≤ substrate protein remaining % ≤ 80%)	A ("A" is defined as 0% ≤ substrate protein remaining % ≤ 80%)	A (0% ≤ substrate protein remaining % ≤ 80%)	A ("A" is defined as 0% ≤ substrate protein remaining % ≤ 80%)	B (80%< substrate protein remaining %≤ 100%)	B ("B" is defined as 80%< substrate protein remaining %≤ 100%)	B (80%< substrate protein remaining %≤ 100%)	B ("B" is defined as 80%< substrate protein remaining %≤ 100%)
O=C1CCN(N2Cc3cc(CN4C5CC4CN(c4cccc(Cl)c4Cl)C5)ccc3C2=O)C(=O)N1 [GT-05162, 1-(5-((3-(2,3-dichlorophenyl)-3,6-diazabicyclo[3.1.1]heptan-6-yl)methyl)-1-oxoisoindolin-2-yl)dihydropyrimidine-2,4(1H,3H)-dione]	–	B ("B" is defined as 80%< substrate protein remaining %≤ 100%)	–	A ("A" is defined as 0% ≤ substrate protein remaining % ≤ 80%)	–	A ("A" is defined as 0% ≤ substrate protein remaining % ≤ 80%)	–	B ("B" is defined as 80%< substrate protein remaining %≤ 100%)	–	B ("B" is defined as 80%< substrate protein remaining %≤ 100%)	–	B ("B" is defined as 80%< substrate protein remaining %≤ 100%)
O=C1CCN(N2C(=O)c3ccc(CN4CCN(c5ccc(Br)cc5)CC4)cc3C2=O)C(=O)N1 [GT-06784, 5-((4-(4-bromophenyl)piperazin-1-yl)methyl)-2-(2,4-dioxotetrahydropyrimidin-1(2H)-yl)isoindoline-1,3-dione]	–	B ("B" is defined as 80%< substrate protein remaining %≤ 100%)	–	B ("B" is defined as 80%< substrate protein remaining %≤ 100%)	–	B ("B" is defined as 80%< substrate protein remaining %≤ 100%)	–	B ("B" is defined as 80%< substrate protein remaining %≤ 100%)	–	A ("A" is defined as 0% ≤ substrate protein remaining % ≤ 80%)	–	B ("B" is defined as 80%< substrate protein remaining %≤ 100%)
O=C1CCN(N2C(=O)c3ccc(CN4CCN(c5ccncc5)CC4)cc3C2=O)C(=O)N1 [GT-07073, 2-(2,4-dioxotetrahydropyrimidin-1(2H)-yl)-5-((4-(pyridin-4-yl)piperazin-1-yl)methyl)isoindoline-1,3-dione]	–	B ("B" is defined as 80%< substrate protein remaining %≤ 100%)	–	B ("B" is defined as 80%< substrate protein remaining %≤ 100%)	–	B ("B" is defined as 80%< substrate protein remaining %≤ 100%)	–	A ("A" is defined as 0% ≤ substrate protein remaining % ≤ 80%)	–	B ("B" is defined as 80%< substrate protein remaining %≤ 100%)	–	B ("B" is defined as 80%< substrate protein remaining %≤ 100%)
